Measured values reported in US20080113032A1, “Scalp Desensitizing Formulation” (BMM PowerMoves, LLC, priority 2001, published 2008).

Key:
[1] = test system: scalp or skin; assay: Desensitization of the scalp or skin, pain relief in hair treatment and manipulation procedures; format: in vivo; settings: benzocaine concentration approximately 20 to 30 weight percent of the formulation
[2] = Recrystallization of benzocaine from the formulation after cooling to room temperature; format: physicochemical
Procedure: The formulation is prepared by first mixing the topical anesthetic, solubilizer, homopolymers and copolymers together and heating the mixture at about 80° C. while stirring. The perfume oil, skin conditioning oils and water or a thickening agent, depending on the type of composition desired, can be added after dissolution of all of the above components being heated has occurred.
This overall recrystallization problem is easily remedied by reheating the mixture either in a hot water bath or briefly in a microwave oven (<10 seconds). […] This is an improvement over the known art.
The following components were dissolved by stirring while heating in a water bath at 80° C. All of the following protocols are actual experiments developed for the production of the formulation.
After the above components were dissolved, the following components were added to the resulting solution while still heating.
The solution was then cooled to room temperature.

## CCOC(=O)c1ccc(N)cc1 [benzocaine, ethyl-p-aminobenzoate]
[1]
  relief of pain associated with hair treatment and manipulation procedures: effective at relieving the pain
[2]; about 20 weight percent benzocaine, after 24 hours
  recrystallization: very small amount of recrystallization may be observed
[2]; about 20 weight percent benzocaine, formulation cooled to room temperature
  benzocaine staying in solution: stays in solution
[2]; about 22 to about 30 weight percent benzocaine, reheated in hot water bath or microwave oven (<10 seconds)
  re-solubility of the reheated mixture: Total re-solubility is achieved
[2]; about 22 to about 30 weight percent benzocaine, several hours after cooling to room temperature
  precipitation in the mixture: some precipitation is observed
